We go through 19 compounds from patent US20100076015A1, “Aminopyridine Derivatives” (VANTIA LIMITED, priority 2008, published 2010).

Holding throughout (assay type): biochemical
The target of one assay is plasmin (Homo sapiens, UniProt P00747). The assay can be described thus: Enzyme selectivity: plasmin (chromogenic substrate S-2390). Particulars: chromogenic substrate S-2390, 37° C. The protocol: (§1) Determination of Enzyme Selectivity
(§2) Selected compounds were further screened for inhibitory activity against other trypsin-like serine proteases using the appropriate enzyme and chromogenic substrate (Chromogenix AB). The activity against the following human enzymes was tested (substrate in brackets):—plasma kallikrein (S-2302), thrombin (S-2238), plasmin (S-2390) and trypsin (S-2222). The enzyme was incubated at 37° C. with the chromogenic substrate. Residual enzyme activity (initial rate of reaction) was determined by measuring the change in optical absorbance at 405 nm.

Another assay deals with thrombin (Homo sapiens, UniProt P00734). The assay is described as follows: Enzyme selectivity: thrombin (chromogenic substrate S-2238). Particulars: chromogenic substrate S-2238, 37° C. Here is the method:
as §1, §2

The next assay has as its target trypsin. The assay can be described thus: Enzyme selectivity: trypsin (chromogenic substrate S-2222). Conditions: human enzyme, chromogenic substrate S-2222, 37° C. The protocol: as §1, §2
In a further assay the target is T1, Human KLK1 (Homo sapiens, UniProt P06870).
T1 construct: purchased Callbiochem (Calbiochem)
T1 sequence (P06870 25-262): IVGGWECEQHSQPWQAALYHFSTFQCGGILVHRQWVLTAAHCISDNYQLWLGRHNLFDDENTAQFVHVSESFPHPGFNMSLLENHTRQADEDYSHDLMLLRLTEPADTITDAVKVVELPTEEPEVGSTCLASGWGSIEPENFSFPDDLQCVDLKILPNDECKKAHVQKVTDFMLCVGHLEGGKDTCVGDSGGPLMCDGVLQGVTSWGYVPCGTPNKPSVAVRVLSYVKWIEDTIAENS
The assay is described as follows: Determination of the IC50 for KLK1 (fluorogenic substrate H-DVal-Leu-Arg-AFC). Conditions: 37° C. An outline of the steps:
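hKLK1 + H-DVal-Leu-Arg-AFC, 37° C, varied cpd conc. Initial rate by A410 change → residual activity → IC50.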

A further assay deals with plasma kallikrein (Homo sapiens, UniProt P03952). The assay can be described thus: Enzyme selectivity: plasma kallikrein (chromogenic substrate S-2302). Particulars: chromogenic substrate S-2302, 37° C. The protocol:
as §1, §2

A value given as a limit tells only on which side of the number the result lay.

plasma kallikrein, sequence (P03952 20-638): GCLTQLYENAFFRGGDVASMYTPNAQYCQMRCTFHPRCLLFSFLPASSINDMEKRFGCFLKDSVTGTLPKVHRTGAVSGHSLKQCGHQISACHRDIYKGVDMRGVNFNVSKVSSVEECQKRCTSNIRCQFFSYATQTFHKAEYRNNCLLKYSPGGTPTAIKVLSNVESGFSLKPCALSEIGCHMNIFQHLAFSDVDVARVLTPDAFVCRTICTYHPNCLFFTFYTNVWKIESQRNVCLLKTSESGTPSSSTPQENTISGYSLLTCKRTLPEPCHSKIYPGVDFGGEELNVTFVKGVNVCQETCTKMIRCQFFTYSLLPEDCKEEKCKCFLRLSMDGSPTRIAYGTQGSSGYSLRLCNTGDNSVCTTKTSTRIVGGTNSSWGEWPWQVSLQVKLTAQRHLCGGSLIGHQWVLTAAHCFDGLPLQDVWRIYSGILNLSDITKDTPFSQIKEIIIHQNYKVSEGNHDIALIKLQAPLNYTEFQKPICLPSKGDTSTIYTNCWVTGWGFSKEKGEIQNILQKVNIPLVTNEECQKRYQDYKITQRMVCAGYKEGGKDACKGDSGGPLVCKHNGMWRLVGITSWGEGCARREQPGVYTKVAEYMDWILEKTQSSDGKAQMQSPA
plasmin, sequence (P00747 581-810 limits assumed): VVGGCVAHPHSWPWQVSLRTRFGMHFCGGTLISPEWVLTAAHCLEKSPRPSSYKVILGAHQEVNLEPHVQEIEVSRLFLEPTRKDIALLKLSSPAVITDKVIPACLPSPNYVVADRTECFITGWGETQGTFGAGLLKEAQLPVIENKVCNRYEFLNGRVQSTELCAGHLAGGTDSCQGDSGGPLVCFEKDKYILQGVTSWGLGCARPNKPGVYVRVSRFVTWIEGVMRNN
plasmin, sequence (P00747 97-580 partner limits assumed): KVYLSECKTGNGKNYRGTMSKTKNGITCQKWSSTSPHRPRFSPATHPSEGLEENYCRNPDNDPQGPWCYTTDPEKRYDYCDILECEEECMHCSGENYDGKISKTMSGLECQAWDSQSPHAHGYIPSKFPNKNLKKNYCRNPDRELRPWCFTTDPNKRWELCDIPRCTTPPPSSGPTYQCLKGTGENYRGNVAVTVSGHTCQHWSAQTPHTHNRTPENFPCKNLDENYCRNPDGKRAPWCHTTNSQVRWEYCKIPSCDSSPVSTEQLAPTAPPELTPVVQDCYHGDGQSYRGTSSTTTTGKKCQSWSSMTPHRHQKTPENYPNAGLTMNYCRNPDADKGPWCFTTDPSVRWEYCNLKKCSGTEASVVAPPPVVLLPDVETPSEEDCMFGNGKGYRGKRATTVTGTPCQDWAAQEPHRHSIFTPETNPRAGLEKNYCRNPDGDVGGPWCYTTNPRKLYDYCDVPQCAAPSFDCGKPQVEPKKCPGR

On to `CCC(C)[C@@H](N)C(=O)N[C@@H](Cc1cccc(F)c1)C(=O)NCc1ccc(N)nc1` (stereo partly drawn) [Example 29, (R)-2-Amino-3-methyl-pentanoic acid [(S)-1-[(6-amino-pyridin-3-ylmethyl)-carbamoyl]-2-(3-fluoro-phenyl)-ethyl]-amide], for which the IC50 (commonly the concentration at which inhibition is half-maximal) at plasmin was > 10 µM; on thrombin, > 10 µM; against trypsin, > 10 µM; at Human KLK1 it was 0.0102 µM; against plasma kallikrein it was > 10 µM.
On to `CCC(C)[C@H](C(=O)N[C@@H](Cc1csc2ccccc12)C(=O)NCc1ccc(N)nc1)N(C)S(C)(=O)=O` (stereo partly drawn) [Example 213, (R)-2-(Methanesulfonyl-methyl-amino)-3-methyl-pentanoic acid {(S)-1-[(6-amino-pyridin-3-ylmethyl)-carbamoyl]-2-benzo[b]thiophen-3-yl-ethyl}-amide], for which the IC50 against plasmin is > 10 µM; against thrombin, > 10 µM; against trypsin, > 10 µM; on Human KLK1, 0.0028 µM; on plasma kallikrein it was > 10 µM.
As to `Cc1cc(C)c(C(=O)N[C@@H](Cc2ccc(Cl)c(Cl)c2)C(=O)NCc2ccc(N)nc2)[nH]1` [Example 233, 3,5-Dimethyl-1H-pyrrole-2-carboxylic acid [(S)-1-[(6-amino-pyridin-3-ylmethyl)-carbamoyl]-2-(3,4-dichloro-phenyl)-ethyl]-amide], the IC50 is > 10 µM on plasmin; > 10 µM against thrombin; > 10 µM at trypsin; 0.0021 µM at Human KLK1; > 10 µM at plasma kallikrein.
As to `CCC(C)[C@H](N)C(=O)N[C@@H](C(=O)NCc1ccc(N)nc1)C(C1CCCCC1)C1CCCCC1` (stereo partly drawn) [Example 11, (S)-2-Amino-3-methyl-pentanoic acid [(R)-1-[(6-amino-pyridin-3-ylmethyl)-carbamoyl]-2,2-dicyclohexyl-ethyl]-amide], the IC50 is > 10 µM on plasmin; > 10 µM against thrombin; > 10 µM at trypsin; 0.0049 µM on Human KLK1; > 10 µM at plasma kallikrein.
On to `CN1CCC[C@@H]1C(=O)N[C@@H](Cc1cccc2ccccc12)C(=O)NCc1ccc(N)nc1` [Example 92, (R)-1-Methyl-pyrrolidine-2-carboxylic acid {(S)-1-[(6-amino-pyridin-3-ylmethyl)-carbamoyl]-2-naphthalen-1-yl-ethyl}-amide], for which the IC50 against plasmin was > 10 µM; at thrombin, > 10 µM; at trypsin it was > 10 µM; on Human KLK1, 0.0036 µM; on plasma kallikrein, > 10 µM.
Regarding `Cc1cccc(C[C@H](NC(=O)c2[nH]c(C)cc2C)C(=O)NCc2ccc(N)nc2)c1` [Example 234, 3,5-Dimethyl-1H-pyrrole-2-carboxylic acid {(S)-1-[(6-amino-pyridin-3-ylmethyl)-carbamoyl]-2-m-tolyl-ethyl}-amide], the IC50 at plasmin is > 10 µM; against thrombin, > 10 µM; against trypsin, > 10 µM; at Human KLK1, 0.0032 µM; against plasma kallikrein, > 10 µM.
Consider `CN[C@H](Cc1ccccc1)C(=O)N[C@@H](Cc1ccc(Cl)c(Cl)c1)C(=O)NCc1ccc(N)nc1` [Example 60, (R)—N-[(S)-1-[(6-Amino-pyridin-3-ylmethyl)-carbamoyl]-2-(3,4-dichloro-phenyl)-ethyl]-2-methylamino-3-phenyl-propionamide], for which the IC50 on plasmin is > 10 µM; against thrombin, > 10 µM; on trypsin, > 10 µM; on Human KLK1, 0.00071 µM; against plasma kallikrein, > 10 µM.
With `CC(C)N(C)[C@@H](C)C(=O)N[C@@H](Cc1ccc(F)c(F)c1)C(=O)NCc1ccc(N)nc1` [Example 176, (S)—N-[(S)-1-[(6-Amino-pyridin-3-ylmethyl)-carbamoyl]-2-(3,4-difluoro-phenyl)-ethyl]-2-(isopropyl-methyl-amino)-propionamide], the IC50 is > 10 µM against plasmin; > 10 µM at thrombin; > 10 µM at trypsin; 0.004 µM on Human KLK1; > 10 µM on plasma kallikrein.
With `CN1CCC[C@@H]1C(=O)N[C@@H](Cc1cccc(C(F)(F)F)c1)C(=O)NCc1ccc(N)nc1` [Example 91, (R)-1-Methyl-pyrrolidine-2-carboxylic acid [(S)-1-[(6-amino-pyridin-3-ylmethyl)-carbamoyl]-2-(3-trifluoromethyl-phenyl)-ethyl]-amide], the IC50 is > 10 µM against plasmin; > 10 µM against thrombin; > 10 µM on trypsin; 0.0021 µM at Human KLK1; > 10 µM against plasma kallikrein.
Take `CCC(C)[C@@H](NC)C(=O)N[C@@H](Cc1ccc(Cl)c(Cl)c1)C(=O)NCc1ccc(N)nc1` (stereo partly drawn) [Example 3, (R)-3-Methyl-2-methylamino-pentanoic acid [(S)-1-[(6-amino-pyridin-3-ylmethyl)-carbamoyl]-2-(3,4-dichloro-phenyl)-ethyl]-amide]: the IC50 is > 10 µM at plasmin; > 10 µM against thrombin; > 10 µM against trypsin; 0.00022 µM at Human KLK1; > 10 µM against plasma kallikrein.
With `CCC(C)[C@@H](N)C(=O)N[C@@H](CC1CCCCC1)C(=O)NCc1ccc(N)nc1` (stereo partly drawn) [Example 20, (R)-2-Amino-3-methyl-pentanoic acid {(S)-1-[(6-amino-pyridin-3-ylmethyl)-carbamoyl]-2-cyclohexyl-ethyl}-amide], the IC50 at plasmin is > 10 µM; on thrombin, > 10 µM; on trypsin, > 10 µM; against Human KLK1, 0.0043 µM; on plasma kallikrein, > 10 µM.
Take `Nc1ccc(CNC(=O)[C@H](Cc2ccc(Cl)c(Cl)c2)NC(=O)[C@H](N)Cc2ccc(Cl)cc2)cn1` [Example 59, (R)-2-Amino-N-[(S)-1-[(6-amino-pyridin-3-ylmethyl)-carbamoyl]-2-(3,4-dichloro-phenyl)-ethyl]-3-(4-chloro-phenyl)-propionamide]: the IC50 was > 10 µM against plasmin; > 10 µM on thrombin; > 10 µM on trypsin; 0.00056 µM against Human KLK1; > 10 µM at plasma kallikrein.
For `CCC(C)[C@H](C(=O)N[C@@H](Cc1ccc(Cl)c(Cl)c1)C(=O)NCc1ccc(N)nc1)N(C)C` (stereo partly drawn) [Example 398, (R)-2-Dimethylamino-3-methyl-pentanoic acid [(S)-1-[(6-amino-pyridin-3-ylmethyl)-carbamoyl]-2-(3,4-dichloro-phenyl)-ethyl]-amide], the IC50 is > 10 µM against plasmin; > 10 µM against thrombin; > 10 µM on trypsin; 0.00082 µM against Human KLK1; > 10 µM on plasma kallikrein.
Regarding `CCN(CC)[C@@H](C)C(=O)N[C@@H](Cc1ccc(F)c(F)c1)C(=O)NCc1ccc(N)nc1` [Example 355, (S)—N-[(S)-1-[(6-Amino-pyridin-3-ylmethyl)-carbamoyl]-2-(3,4-difluoro-phenyl)-ethyl]-2-diethylamino-propionamide], the IC50 is > 10 µM on plasmin; > 10 µM against thrombin; > 10 µM on trypsin; 0.0025 µM at Human KLK1; > 10 µM on plasma kallikrein.
With `Nc1ccc(CNC(=O)[C@H](Cc2ccc(Cl)c(Cl)c2)NC(=O)[C@H]2CCCN2)cn1` [Example 4, (R)-Pyrrolidine-2-carboxylic acid [(S)-1-[(6-amino-pyridin-3-ylmethyl)-carbamoyl]-2-(3,4-dichloro-phenyl)-ethyl]-amide], the IC50 against plasmin, against thrombin, against trypsin and against plasma kallikrein was > 10 µM in each case.
Take `CN(C)[C@H](Cc1ccccc1)C(=O)N[C@@H](Cc1ccc(Cl)c(Cl)c1)C(=O)NCc1ccc(N)nc1` [Example 400, (R)—N-[(S)-1-[(6-Amino-pyridin-3-ylmethyl)-carbamoyl]-2-(3,4-dichloro-phenyl)-ethyl]-2-dimethylamino-3-phenyl-propionamide]: the IC50 is > 10 µM against plasmin; > 10 µM at thrombin; > 10 µM against trypsin; 0.0017 µM on Human KLK1; > 10 µM against plasma kallikrein.
For `Nc1ccc(CNC(=O)[C@H](Cc2cccc(C(F)(F)F)c2)NC(=O)c2ccc[nH]2)cn1` [Example 229, 1H-Pyrrole-2-carboxylic acid [(S)-1-[(6-amino-pyridin-3-ylmethyl)-carbamoyl]-2-(3-trifluoromethyl-phenyl)-ethyl]-amide], the IC50 on plasmin was > 10 µM; against thrombin it was > 10 µM; against trypsin, > 10 µM; at Human KLK1, 0.0034 µM; on plasma kallikrein, > 10 µM.
For `Cc1cc(C)c(C(=O)N[C@@H](Cc2cccc3ccccc23)C(=O)NCc2ccc(N)nc2)[nH]1` [Example 231, 3,5-Dimethyl-1H-pyrrole-2-carboxylic acid {(S)-1-[(6-amino-pyridin-3-ylmethyl)-carbamoyl]-2-naphthalen-1-yl-ethyl}-amide], the IC50 was > 10 µM against plasmin; > 10 µM against thrombin; > 10 µM on trypsin; 0.0031 µM against Human KLK1; > 10 µM against plasma kallikrein.
`CCC(C)[C@@H](N)C(=O)N[C@@H](Cc1ccccc1)C(=O)NCc1ccc(N)nc1` (stereo partly drawn) [Example 26, (R)-2-Amino-3-methyl-pentanoic acid {(S)-1-[(6-amino-pyridin-3-ylmethyl)-carbamoyl]-2-phenyl-ethyl}-amide]: the IC50 against plasmin is > 10 µM; at thrombin it was > 10 µM; against trypsin it was > 10 µM; against Human KLK1, 0.0205 µM; against plasma kallikrein, > 10 µM.
